Like-named read-outs stand apart in the source and are kept apart here.
Legend:
[1] = system: HCVcc-1a/2a-Rluc; assay type: cell-based, hepatitis C virus; conditions: mean of 8 independent experiments
[2] = system: HCVcc-1b/2a; assay type: cell-based, hepatitis C virus
[3] = system: HCVpp-1b; test: Inhibitor time-of-addition / attachment vs post-attachment assay, Huh-H1 cells
Procedure: Huh-H1 cells were seeded at 5×10^3 cells/well in 96-well plates. The following day the plates were chilled to 4°C and the media was removed and replaced with HCVpp inoculum in a volume of 50 µl. Plates were incubated at 4°C for 1.5 hr on a rocking platform. The inoculum was removed and unbound virus was removed by 2 washes with 4°C media. Fresh media was added and the plates were shifted to a 37°C incubator. […] At 3 days post infection, firefly luciferase activity was quantified using the Steady-Glo Reagent (Promega) according to the manufacturer's instructions. Experiments were done in triplicate and the mean % inhibition was calculated relative to control infections lacking inhibitor.

[4] = system: HIV; test: microbe, parasite or virus in culture; conditions: Human immunodeficiency virus 1, MT2, read-out: EC50 HIV
Procedure: (§1) BVDV cell protection assays were performed essentially as described [54] by infecting MDBK cells with 0.1 pfu/cell of BVDV strain NADL. Infected cells were incubated at 37°C for 3 days and virus-induced cytopathicity was measured using the Cell Titer-Glo reagent (Promega). HIV assays were performed as described [55] by infecting MT2 cells with 0.05 pfu/cell of the NL4-3 strain of HIV (NIH Research and Reference Reagent Program) containing the Renilla luciferase gene (NL-Rluc) in the Nef locus. Infected cells were incubated at 37°C for 5 days and virus replication was measured by reverse transcriptase assay using a scintillation proximity assay as described [55].

[5] = system: HCVcc-1a/2a; conditions: 0.5 µM EI-1 in agarose overlay
Procedure: An assay incorporating a semisolid medium was used to access cell-to-cell spread as described [57]. HCVcc-1a/c2a was added to 1.6×10^4 Huh-7.5 cells at 0.001 ffu/cell incubated at 37°C. […] Cells were incubated at 37°C for 2, 3 or 4 days at which time the agarose was removed and the infected cells were detected using indirect immunofluorescence for the HCV core protein as described above. The mean number of infected cells/ffu was determined from ≥100 foci for each data point.

[6] = in vitro; conditions: human
Procedure: (§2) In addition, compound-induced cytotoxicity in each cell line used for the infection assays was measured.

[7] = assay type: cell-based; conditions: human, Huh-7.5 cells
[8] = system: HCVcc-2a/2a-Rluc; assay type: cell-based
[9] = in vitro; conditions: bovine
Procedure: as §2

[10] = system: BVDV; test: microbe, parasite or virus in culture; conditions: Bovine viral diarrhea virus isolates and strains, read-out: EC50 BVDV
Procedure: as §1

[11] = in vitro; conditions: dog
Procedure: as §2

[12] = system: VSVpp; test: microbe, parasite or virus in culture; assay type: cell-based; conditions: Vesicular stomatitis virus, Huh-H1, read-out: EC50 VSVpp
[13] = system: HCV entry; assay type: cell-based, hepatitis C virus

## C=C[C@@H]1C[C@]1(NC(=O)[C@@H]1C[C@@H](Oc2nccc3cc(OC)ccc23)CN1C(=O)[C@@H](NC(=O)OC(C)(C)C)C(C)(C)C)C(=O)NS(=O)(=O)C1CC1 [BMS-605339]
[1]
  EC50: 0.123 µM

## COC(=O)N[C@H](C(=O)N1CCC[C@H]1c1nc(-c2ccc(-c3ccc(-c4c[nH]c([C@@H]5CCCN5C(=O)[C@@H](NC(=O)OC)C(C)C)n4)cc3)cc2)c[nH]1)C(C)C [BMS-790052, reference compound]
[2]
  virus release, inhibitor added 5 hours post infection (post entry; in words): prevented virus release

## CCCCCNc1nc(Nc2ccc([N+](=O)[O-])cc2)nc(OCC(F)(F)F)n1 [EI-1, N ^2-(4-nitrophenyl)-N ^4-pentyl-6-(2,2,2-trifluoroethoxy)-1,3,5-triazine-2,4-diamine]
[3]; 0.125 µM EI-1
  effect on the attachment of HCVpp to HSPGs (inhibitor during 4°C step only; in words): little effect
[3]; 0.125 µM EI-1 added at intervals after 37°C shift
  time of infection within which inhibition is exerted: ≤ 3 h
[3]; Hepatitis C virus, Huh-H1, read-out: inhibition when inhibitor present during the 37°C phase only (post-attachment)
  inhibition at 0.125 µM: > 90%
[4]
  EC50: 23.4 µM
[5]
  cell-to-cell transmission (in words): abrogated
[6]
  CC50: > 50 µM
[7]
  CC50: > 50 µM
[8]
  activity against genotype 2a/2a chimeric virus (in words): not active
[9]
  CC50: > 50 µM
[2]
  progeny virus release, inhibitor present during entry (in words): dose-dependent reduction
  virus release, inhibitor added 5 hours post infection (post entry; in words): did not affect the levels of virion particles or infectious virus produced
[10]
  EC50: > 50 µM
[11]
  CC50: > 50 µM
[12]
  EC50: 33 µM

## CO/C1=C\C(C)=C\[C@@H](C)[C@@H](O)[C@@H](C)C/C(C)=C/C=C/[C@H](OC)[C@@H]([C@@H](C)[C@@H](O)[C@H](C)[C@@]2(O)C[C@@H](O)[C@H](C)[C@@H](C(C)C)O2)OC1=O [bafilomycin, bafilomycin A1, reference compound]
[3]; 10 nM bafilomycin A1
  time after the 37°C temperature shift at which sensitivity to the inhibitor was lost: ≥ 3 h
[3]; heparin 200 µg/ml, anti-CD81 monoclonal antibody 2 µg/ml, bafilomycin A1 10 nM
  stage of entry at which the control inhibitor is effective (in words): only effective during the post-attachment stage

## CCCCCCCCO[C@@H]1O[C@H](CO)[C@@H](O)[C@H](O)[C@H]1O [β-OG, n-octyl-β-D-glucoside]
[13]
  inhibition of HCV entry (in words): did not inhibit
